Where two headings read alike, the source gives them in different places.
What was measured:
[1] = system: CD8+T Cells in Human Whole Blood; experiment: Measurement of pCREB in CD8+ T cells; format: cell-based; details: T-cell, 1 h; heparinised human whole blood, rolipram, 3 μM NECA, 60 min, FACS
Protocol: Heparinised human whole blood was pre-incubated at 37° C. with serial dilutions of A2a antagonists for 20 min. and the phosphodiesterase inhibitor rolipram to amplify the pCREB response. The adenosine receptor agonist NECA is then added at a final concentration of 3 μM and following a 60 min incubation the blood is fixed and red blood cells lysed. White blood cells are isolated, permeabilized and stained with directly conjugated fluorescent antibodies to phospho-CREB (Alexa Fluor 488) and CD8 (Alexa Fluor 647) and the level of phospho-CREB in CD8+ T cells is measured by FACS using a BD Accuri C6 Flow Cytometer.

[2] = system: Human Whole Blood; experiment: LPS stimulated TNF-alpha release NECA reversal assay; format: cell-based; details: 5 hours
Protocol: Blood is drawn from healthy volunteers using sodium citrate (0.3% final concentration) or heparin (19.5 U/ml) as the anticoagulant. A 15 minute incubation may be given with adenosine deaminase (2 u/ml) prior to plating the blood into assay plates, as indicated. 20 μl diluted compound mix containing LPS, NECA and adenosine receptor antagonist diluted in RPMI medium is added to U-bottom cell culture plates. 180 μl anticoagulated blood is added. Assay plates are incubated for 5 hours at 37° C. in a humidified incubator. Plasma obtained by centrifugation at 2000 rpm/10 mins is tested for TNF alpha levels using the human TNF alpha Tissue Culture Kit (Meso Scale Discovery). For bar charts, data is expressed as raw counts from a Mesoscale Sector Imager 6000.

[3] = system: Human PBMCs; experiment: CD3/CD28 stimulated IL-2 release NECA reversal assay; format: cell-based
Protocol: Blood is drawn from healthy volunteers using sodium citrate as the anticoagulant (0.3% final concentration). […] 50 μl diluted compound mix is added to the cells, to obtain final concentrations of 1 ug/ml CD28 antibody, 1 uM NECA and 0.003-10 μM adenosine receptor antagonist. Assay plates are incubated for 24 hours at 37° C. in a humidified incubator.

[4] = target: T1, Adenosine A1 receptor (Homo sapiens, UniProt P30542); experiment: Adenosine receptor TR-FRET binding assay, A1; details: Table 9, further testing; displacement of 100 nM CA200645, CHO cell membranes
T1 construct: expressed in transfected cells; host or cells: CHO cell membranes
T1 sequence (P30542 1-326): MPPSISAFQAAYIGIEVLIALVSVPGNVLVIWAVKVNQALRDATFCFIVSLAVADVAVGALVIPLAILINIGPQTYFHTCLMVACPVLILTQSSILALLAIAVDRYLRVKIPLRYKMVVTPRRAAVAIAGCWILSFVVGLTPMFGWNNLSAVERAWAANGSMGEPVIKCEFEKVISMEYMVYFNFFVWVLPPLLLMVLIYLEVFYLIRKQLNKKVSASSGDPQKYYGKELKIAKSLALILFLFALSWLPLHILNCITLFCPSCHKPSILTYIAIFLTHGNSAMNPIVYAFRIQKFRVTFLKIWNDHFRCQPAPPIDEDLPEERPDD
Method in brief: (§1)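 Competition TR-FRET binding in CHO cell membranes expressing terbium-labelled human receptors, displacing fluorescent XAC (CA200645; 30 nM for A2b, 100 nM for A1, A2a, A3); 2 h at room temperature with saponin buffer, 1% DMSO. 665/620 nm ratio; non-specific with 10 μM XAC; Ki by Cheng–Prusoff from IC50.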

[5] = target: T2, Adenosine A2a receptor (Homo sapiens, UniProt P29274); experiment: Adenosine receptor TR-FRET binding assay, A2a; details: displacement of 100 nM CA200645, CHO cell membranes
T2 construct: expressed in transfected cells; host or cells: CHO cell membranes
T2 sequence (P29274 whole entry): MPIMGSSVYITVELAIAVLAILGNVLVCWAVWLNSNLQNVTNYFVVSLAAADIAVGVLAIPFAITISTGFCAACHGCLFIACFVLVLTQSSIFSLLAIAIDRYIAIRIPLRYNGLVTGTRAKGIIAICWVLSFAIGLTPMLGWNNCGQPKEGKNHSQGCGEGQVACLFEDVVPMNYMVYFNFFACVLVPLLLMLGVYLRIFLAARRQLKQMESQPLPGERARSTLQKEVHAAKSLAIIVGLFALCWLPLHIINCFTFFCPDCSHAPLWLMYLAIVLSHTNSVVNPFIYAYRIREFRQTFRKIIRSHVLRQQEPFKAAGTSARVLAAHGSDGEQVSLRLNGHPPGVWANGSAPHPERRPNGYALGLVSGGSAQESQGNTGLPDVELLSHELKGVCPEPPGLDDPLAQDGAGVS
Method in brief: as §1

[6] = target: T3, Adenosine A3 receptor (Homo sapiens, UniProt P0DMS8); experiment: Adenosine receptor TR-FRET binding assay, A3; details: Table 9, further testing; displacement of 100 nM CA200645, CHO cell membranes; read-out: A3 Ki
T3 construct: expressed in transfected cells; host or cells: CHO cell membranes
T3 sequence (P0DMS8 1-318): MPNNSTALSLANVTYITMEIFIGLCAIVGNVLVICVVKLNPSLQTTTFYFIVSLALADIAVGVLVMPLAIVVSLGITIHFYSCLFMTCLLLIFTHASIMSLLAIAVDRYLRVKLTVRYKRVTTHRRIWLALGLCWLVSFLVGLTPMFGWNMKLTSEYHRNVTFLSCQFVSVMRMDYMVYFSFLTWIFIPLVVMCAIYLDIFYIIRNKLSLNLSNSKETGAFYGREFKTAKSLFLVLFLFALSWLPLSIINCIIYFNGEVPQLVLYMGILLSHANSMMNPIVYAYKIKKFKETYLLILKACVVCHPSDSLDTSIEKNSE
Method in brief: as §1

[7] = target: T4, Adenosine A2b receptor (Homo sapiens, UniProt P29275); experiment: Adenosine receptor TR-FRET binding assay, A2b; details: Table 9, further testing; displacement of 30 nM CA200645, CHO cell membranes
T4 construct: expressed in transfected cells; host or cells: CHO cell membranes
T4 sequence (P29275 1-332): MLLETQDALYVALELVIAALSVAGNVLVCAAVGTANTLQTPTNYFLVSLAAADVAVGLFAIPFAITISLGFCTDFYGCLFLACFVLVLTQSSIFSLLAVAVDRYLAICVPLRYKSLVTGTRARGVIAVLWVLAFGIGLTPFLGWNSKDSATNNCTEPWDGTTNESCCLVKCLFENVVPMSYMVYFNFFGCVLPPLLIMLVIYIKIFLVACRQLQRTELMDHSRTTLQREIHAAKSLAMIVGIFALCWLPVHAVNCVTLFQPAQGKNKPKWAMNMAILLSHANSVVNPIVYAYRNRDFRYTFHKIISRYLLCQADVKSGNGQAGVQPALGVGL
Method in brief: as §1

[8] = Homo sapiens, PBMC, read-out: IL-2 release NECA reversal IC50 (nM), 1 uM NECA, 24 hours

| IC50 [1] | IC50 [2] | Ki [4] | Ki ([5]; Table 8, Cheng and Prusoff) | Ki ([5]; Table 9, further testing) | Ki [6] | Ki [7] | SMILES | IC50 ([3]; read-out: IL-2 release NECA reversal IC50, 1 uM NECA, 24 hours) | IC50 [3, 8] |
| --- | --- | --- | --- | --- | --- | --- | --- | --- | --- |
| 1210 nM | 2290 nM | 1720 nM | 1.7 nM | 3.3 nM | 908 nM | 440 nM | Cc1cccnc1CNC(=O)c1cnc(-c2ccco2)nc1N [Example 3, 4-Amino-2-(2-furyl)-N-[(3-methyl-2-pyridyl)methyl]pyrimidine-5-carboxamide] | 77 nM | – |
| 17 nM | 476 nM | 18 nM | – | 0.078 nM | 194 nM | 5.4 nM | COc1nc(-c2ccco2)nc(N)c1C(=O)NCc1c(Cl)cccc1Cl [Example 18.3, 4-Amino-N-[(2,6-dichlorophenyl)methyl]-2-(2-furyl)-6-methoxy-pyrimidine-5-carboxamide] | – | 5 nM |
| 42 nM | 221 nM | 1.7 nM | – | 0.11 nM | 11 nM | 80 nM | Cc1cccnc1CNC(=O)c1c(N)nc(-c2ccco2)nc1OC[C@H](C)O [Example 20.11, 4-Amino-2-(2-furyl)-6-[(2S)-2-hydroxypropoxy]-N-[(3-methyl-2-pyridyl)methyl]pyrimidine-5-carboxamide] | – | 9 nM |
